Reference: US6521594B1, “Method and composition for treating thrombosis” (La Jolla Cancer Research Foundation, priority 1990, dated 2003)
Like-named read-outs stand apart in the source and are kept apart here. No end group written: not given here. *: point of attachment. Pmc = Cc1c(C)c(S(=O)(=O)*)c(C)c2c1OC(C)(C)CC2

Legend:
[1] = target: T1, platelets (Homo sapiens, UniProt P05106+P08514); experiment: Platelet aggregation assay (Examples XI.G and XII); assay type: cell-based
Method: (§1) Platelet aggregation was assessed using the method of Born, Nature 194:927-929 (1962), incorporated herein by reference. Briefly, the change in light transmission was measured through a stirred suspension of platelets in an aggregometer (Model 400 VS, Chrono-Log, Havertown, Pa., USA). Studies employing ADP were performed with platelet-rich plasma (PRP), which was obtained by low-speed centrifugation (200×g for 10 min.) of whole blood freshly drawn into trisodium citrate (at a final concentration of 11 mM). In studies using thrombin, the PRP was gel-filtered on Sepharose 2B in divalent ion-free Tyrode's solution containing 2% BSA. For all studies, the reference standard was platelet-poor plasma, which was obtained by centrifuging PRP at 1000×g for 5 min.
All aggregation studies were performed at 37° C. with a constantly stirred suspension of 3×10^8 platelets/mL. (Platelet count was determined with the aid of a hemacytometer.) Peptides and stimulants were added to these suspensions in 1% dilutions. The PRP and gel-filtered platelets were used within three hours from the time of blood collection.
The peptides described in this Example were synthesized according to the methods of Examples I and XI. Selectivity and potency were measured according to the methods of Examples II through XI. The peptide identification numbers used in this Example are consistent and relevant to this Example only. Some of the peptides are identified by other nomenclature elsewhere in this document.

[2] = system: platelets; experiment: Ex vivo inhibition of platelet aggregation (Table IV); assay type: in vivo, dog; conditions: dose as listed per peptide (bolus ± infusion)
Method: as §1, with “Platelet aggregation assays were performed following the methods of this Example or those of Example IX.G. Platelet” for “Platelet”, “(Nature” for “Nature”, “(1962)),” for “(1962),”
Platelet counts and ex vivo aggregation studies were performed one hour before and 1, 3, and 5 hours after application of anodal direct current.
Using the method described in Example V to measure ex vivo inhibition of platelet aggregation and the method described in Example VII to measure bleeding, four additional peptides were tested. These peptides included 11J, 11Q, 11K and 11V.

[3] = system: αvβ5; experiment: αvβ5 ELISA IC50 (μM)
Excerpt: Table printed on a drawing sheet, FIG. 23
Title: Modification of Ac-CNPRGD(Y-OMe)RC-NH2
(§2) Head of the field: αvβ5 ELISA IC50 (μM)
First copying reader's note: Underlining in the printed sequences marks the cyclised part (C to C); the footnote for the raised a on 'Peptide' is not printed on the sheet.
(§3) Where the first naming reader finds the target: head: αvβ5 ELISA IC50 (μM)

[4] = system: αvβ5; experiment: αvβ5 ELISA IC50 (μM); remark: listed apart in the source
Excerpt: Table printed on a drawing sheet, FIG. 19
(§4) Title: Modifications of R(Pmc)GHRGD(Y-OMe)RCR
as §2
First copying reader's note: The part of each sequence from (Pmc) through C is underlined on the sheet, and the footnotes a,b cited in the head are not printed on it.
as §3

[5] = target: T1, platelets; assay type: cell-based; conditions: ADP 10 μm; citrated PRP; read-out: ADP-Stimulated Aggregation (IC50)
Method: Briefly, the change in light transmission was measured through a stirred suspension of platelets in an aggregometer (Model 400 VS, Chrono-Log, Havertown, Pa., USA). […] In studies using thrombin, the PRP was gel-filtered on Sepharose 2B in divalent ion-free Tyrode's solution containing 2% BSA. For all studies, the reference standard was platelet-poor plasma, which was obtained by centrifuging PRP at 1000×g for 5 min.
(§5) All aggregation studies were performed at 37° C. with a constantly stirred suspension of 3×10^8 platelets/ml. (Platelet count was determined with the aid of a hemacytometer.) Peptides and stimulants were added to these suspensions in 1% dilutions. The PRP and gel-filtered platelets were used within three hours from the time of blood collection.
(§6) Peptide anti-aggregation potencies were determined from dose-responsive curves for the inhibition of the maximum aggregation responses stimulated by physiologic doses of ADP (10 μm) and thrombin (2 U/ml).

[6] = system: αvβ5; experiment: αvβ5 ELISA IC50 (μM); remark: listed apart in the source
Excerpt: Table printed on a drawing sheet, FIG. 20
as §4, §2
First copying reader's note: Footnote marks a, b and c are printed but their texts are not on the sheet; the underlined part of each sequence (Pmc to C) marks the cyclic portion, and D in (DH) and (DY) is a small capital for the D-amino acid.
as §3

[7] = system: αvβ5; experiment: αvβ5 ELISA IC50 (μM); remark: listed apart in the source
Excerpt: Table printed on a drawing sheet, FIG. 22
Title: Modifications of Ac-CNPRGD(Y-OMe)RC-NH2
as §2
First copying reader's note: Underlining in the printed sequences marks the cyclic part; the footnote for the raised a at 'Peptide' is not printed on the sheet, and the D in D-Pen is printed as a small capital.
as §3

[8] = target: T1, platelets; experiment: Thrombin-stimulated platelet aggregation (gel-filtered platelets); assay type: cell-based; conditions: thrombin 2 U/ml
Method: as §5, §6

[9] = system: αvβ5; experiment: αvβ5 ELISA IC50 (μM); remark: listed apart in the source
Excerpt: Table printed on a drawing sheet, FIG. 17
Title: Modifications of G(Pen)[…]
as §2
The patent's description of the figure: FIG. 17 is a Table showing the effect of modifications of Pen residue at position −3 (as defined, infra) on potency and selectivity.
First copying reader's note: Underlining in the printed sequences marks the cyclized part; the footnotes a and b are referenced but not printed on the sheet.
as §3

T1 sequence (P08514 32-1039): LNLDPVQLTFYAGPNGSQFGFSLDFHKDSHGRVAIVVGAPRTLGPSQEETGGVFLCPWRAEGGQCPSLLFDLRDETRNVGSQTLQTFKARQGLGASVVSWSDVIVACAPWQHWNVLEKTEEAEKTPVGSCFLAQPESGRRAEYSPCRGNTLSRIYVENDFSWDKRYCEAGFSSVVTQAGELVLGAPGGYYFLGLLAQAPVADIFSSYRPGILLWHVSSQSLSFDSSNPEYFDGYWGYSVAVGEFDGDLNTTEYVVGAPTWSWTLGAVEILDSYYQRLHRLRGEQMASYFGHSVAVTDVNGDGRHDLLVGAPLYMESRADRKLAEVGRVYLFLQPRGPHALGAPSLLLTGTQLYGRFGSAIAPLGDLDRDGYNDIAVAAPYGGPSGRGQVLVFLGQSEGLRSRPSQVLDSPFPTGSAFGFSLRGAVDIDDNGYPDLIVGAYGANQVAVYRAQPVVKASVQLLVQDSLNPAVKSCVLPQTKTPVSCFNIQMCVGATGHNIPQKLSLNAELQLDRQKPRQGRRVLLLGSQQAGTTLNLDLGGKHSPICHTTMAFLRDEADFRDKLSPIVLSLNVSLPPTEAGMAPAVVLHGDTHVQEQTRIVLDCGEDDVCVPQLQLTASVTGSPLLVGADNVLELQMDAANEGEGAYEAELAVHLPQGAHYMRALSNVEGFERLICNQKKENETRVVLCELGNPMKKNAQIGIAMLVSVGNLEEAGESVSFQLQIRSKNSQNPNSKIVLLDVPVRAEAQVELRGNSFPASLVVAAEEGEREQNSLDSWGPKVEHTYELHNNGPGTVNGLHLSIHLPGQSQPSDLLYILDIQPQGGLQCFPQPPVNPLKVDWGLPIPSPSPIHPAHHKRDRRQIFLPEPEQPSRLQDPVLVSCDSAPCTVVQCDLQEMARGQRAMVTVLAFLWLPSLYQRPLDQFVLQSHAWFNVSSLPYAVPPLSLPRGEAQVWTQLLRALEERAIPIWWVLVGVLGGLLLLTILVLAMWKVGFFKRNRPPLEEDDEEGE
T1 sequence (P05106 27-788): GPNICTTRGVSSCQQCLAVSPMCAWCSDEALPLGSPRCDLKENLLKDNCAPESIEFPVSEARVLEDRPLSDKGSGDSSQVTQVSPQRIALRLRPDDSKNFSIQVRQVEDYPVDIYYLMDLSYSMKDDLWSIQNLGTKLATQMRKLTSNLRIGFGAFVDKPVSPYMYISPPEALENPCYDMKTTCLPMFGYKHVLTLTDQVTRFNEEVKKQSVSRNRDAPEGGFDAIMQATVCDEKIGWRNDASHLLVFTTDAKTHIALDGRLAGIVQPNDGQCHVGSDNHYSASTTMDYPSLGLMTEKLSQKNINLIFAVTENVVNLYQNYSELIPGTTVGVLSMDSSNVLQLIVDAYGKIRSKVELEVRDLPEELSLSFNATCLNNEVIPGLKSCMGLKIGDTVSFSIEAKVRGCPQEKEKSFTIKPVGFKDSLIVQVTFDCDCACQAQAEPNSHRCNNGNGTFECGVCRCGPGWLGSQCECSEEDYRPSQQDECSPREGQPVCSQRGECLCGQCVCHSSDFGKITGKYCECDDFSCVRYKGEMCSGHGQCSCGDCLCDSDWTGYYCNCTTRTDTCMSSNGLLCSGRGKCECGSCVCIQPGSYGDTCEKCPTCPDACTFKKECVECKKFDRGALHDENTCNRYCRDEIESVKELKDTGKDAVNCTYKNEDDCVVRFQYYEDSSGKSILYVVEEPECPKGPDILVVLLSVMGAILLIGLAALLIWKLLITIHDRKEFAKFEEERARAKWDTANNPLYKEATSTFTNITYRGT

## Ac-CNPRGD(Y-OMe)AC-NH2 [11K] [listing 1 of 2 here]
[1]; comparator analogue 32
  platelet aggregation potency compared with analogue 32: substantial decreases
[2]
  ex vivo inhibition platelet aggregation: >98%

## Ac-CNPRGD(Y-OMe)AC-NH2 [11K] [listing 2 of 2 here]
[3]
  IC50: 8.85 µM

## R(Pmc)SHRGD(Y-OMe)RCR [compound 19]
[4]
  IC50: 6.6 µM

## (t-but-am-Pmp)GHRGDLR(Pen)A
[5]
  IC50: 89 µM

## R(Pmc)G(DY)RGD(Y-OMe)RCR [compound 25]
[6]
  IC50: 10 µM

## (Pmp)GHRGDLRCA
[1]; comparator analogue 1
  fold increase in potency over analogue 1: 2 fold

## Ac-CNPRGD(Y-OMe)(Nle)C-NH2 [11V]
[2]
  ex vivo inhibition platelet aggregation: >98%

## Ac-CNPRGD(Y-OMe)(dR)C-NH2 [11L]
[1]; comparator analogue 32
  platelet aggregation potency compared with analogue 32: decrease in potency

## R(Pmc)GYRGD(Y-OMe)RCR [compound 24]
[6]
  IC50: 8.8 µM

## (Mpr)NPRGD(Y-OMe)RC-NH2 [compound 39]
[7]
  IC50: 3000 nM

## G(Pen)GHRGDTRCA
[8]
  IC50: 17 µM
[5]
  IC50: 11.3 µM

## G(D-Pen)GHRGDLRCA [compound 2]
[9]
  IC50: 5.27 µM

## AcCIPRGDY-OMeRCNH2 [10R]
[1]; comparator analogue 26
  fold increase in platelet aggregation potency versus analogue 26: 3-4 fold

## G(Pen)GRGDTPCA
[5]
  IC50: 22.3 µM

## R(Pmc)IHRGD(Y-OMe)RCR [compound 20]
[4]
  IC50: 9.9 µM

## R(Pmc)RHRGD(Y-OMe)RCR [compound 22]
[4]
  IC50: 6.2 µM

## RGD(O-Me-Y)RE-NH2 [21I]
[1]; comparator 8×
  reactivity in platelet aggregation relative to 8×: about three-fold

## R(Pmc)GHRGDLRCR [analogue 5]
[9]
  IC50: 1.58 µM

## G(Pen)LRGDTPCA
[5]
  IC50: 86 µM

## Ac-CNPKGD(Y-OMe)RC-NH2 [11Q]
[2]
  ex vivo inhibition platelet aggregation: >95%

## Ac-CNPRGD(Y-OMe)LC-NH2 [compound 47]
[3]
  IC50: 7.14 µM

## R2(Pen)GRGDTPCA
[8]
  IC50: 2.7 µM
[5]
  IC50: 8.2 µM

## G(Pen)LRGDSRCA
[8]
  IC50: 49 µM
[5]
  IC50: 41 µM

## Ac-CNPRGD(Y-OMe)EC-NH2 [11J]
[1]; comparator analogue 32
  fold decrease in potency versus analogue 32: 15 fold
[2]
  ex vivo inhibition platelet aggregation: >98%

## L(Pen)GHRGDLRCA
[5]
  IC50: 10.5 µM

## Ac-(Pmc)NPRGD(Y-OMe)RC-NH2 [compound 37]
[7]
  IC50: 2340 nM
